Test results published in the supplement of paper PMC11061612.

Columns and labels:
[1] = compound: C1CC(C1)(C(=O)[O-])C(=O)[O-].N.N.[Pt+2] [Carboplatin]; conditions: max 10 µM
How it was run: (§1)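 Following 24 hours at 37°C and 5% CO2, cancer cell lines in 1536-well plates with 7.5 μl DMEM/F12 or RPMI and 10% FBS were dosed for 72 hours, final DMSO typically being 0.2%. CellTiter-Glo 2.0 luminescence, scaled between blank-well and DMSO-well means, gave the viability readout. Dose responses were fitted to a two-parameter logistic curve with a non-linear mixed effects model, and the single-agent IC50 was derived from this fit.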

[2] = compound: C1CN(CCC1(C(=O)N[C@@H](CCO)C2=CC=C(C=C2)Cl)N)C3=NC=NC4=C3C=CN4 [AZD5363]; conditions: max 10 µM
How it was run: as §1

[3] = compound: C=CCn1c(=O)c2cnc(Nc3ccc(N4CCN(C)CC4)cc3)nc2n1-c1cccc(C(C)(C)O)n1 [AZD1775]
How it was run: as §1

[4] = compound: CC(=O)Nc1cccc(-n2c(=O)n(C3CC3)c(=O)c3c(Nc4ccc(I)cc4F)n(C)c(=O)c(C)c32)c1 [Trametinib]; conditions: max 1 µM
How it was run: as §1

[5] = compound: CC(=O)O[C@H]1C(=O)[C@@]2(C)[C@H]([C@H](OC(=O)c3ccccc3)[C@]3(O)C[C@H](OC(=O)[C@H](O)[C@@H](NC(=O)c4ccccc4)c4ccccc4)C(C)=C1C3(C)C)[C@]1(OC(C)=O)CO[C@@H]1C[C@@H]2O [Paclitaxel]; conditions: max 3 µM
How it was run: as §1

[6] = compound: CC(=O)c1c(C)c2cnc(Nc3ccc(N4CCNCC4)cn3)nc2n(C2CCCC2)c1=O [Palbociclib]; conditions: max 10 µM
How it was run: as §1

[7] = compound: CC(C)n1c(=O)n(C)c2cnc3cc(F)c(-c4ccc(OCCCN5CCCCC5)nc4)cc3c21 [AZD1390]; conditions: max 0.3 µM
How it was run: as §1

[8] = compound: CC1(C)CCC(CN2CCN(c3ccc(C(=O)NS(=O)(=O)c4ccc(NCC5CCOCC5)c([N+](=O)[O-])c4)c(Oc4cnc5[nH]ccc5c4)c3)CC2)=C(c2ccc(Cl)cc2)C1 [Venetoclax]; conditions: max 1 µM
How it was run: as §1

[9] = compound: CC1=C(C(=CC=C1)Cl)NC(=O)C2=CN=C(S2)NC3=CC(=NC(=N3)C)N4CCN(CC4)CCO [Dasatinib]; conditions: max 2 µM
How it was run: as §1

[10] = compound: CC1=CN2[C@@H](C1)C=NC3=CC(=C(C=C3C2=O)OC)OCCCCCOC4=C(C=C5C(=C4)N=C[C@@H]6CC(=CN6C5=O)C)OC [SG3199]; conditions: max 0.001 µM
How it was run: as §1

[11] = compound: CCN(CCO)CCCOc1ccc2c(Nc3cc(CC(=O)Nc4cccc(F)c4)[nH]n3)ncnc2c1 [AZD2811]; conditions: max 1 µM
How it was run: as §1

[12] = compound: CCc1c2c(nc3ccc(O)cc13)-c1cc3c(c(=O)n1C2)COC(=O)[C@]3(O)CC [SN-38]; conditions: max 0.3 µM
How it was run: as §1

[13] = compound: CN(C)CCCOc1ccc(-c2ccc3ncc4c(c3c2)n(C2CCOCC2)c(=O)n4C)cn1 [AZD0156]
How it was run: as §1

[14] = compound: CN(CC[C@H](CSC1=CC=CC=C1)NC2=C(C=C(C=C2)S(=O)(=O)NC(=O)C3=CC=C(C=C3)N4CCC(CC4)[C@H](C5=CC=CC=C5C6=CC=C(C=C6)Cl)O)S(=O)(=O)C(F)(F)F)CCO [AZD4320]; conditions: max 1 µM
How it was run: as §1

[15] = compound: COc1cc(Nc2ncc3c(n2)-c2ccc(Cl)cc2C(c2c(F)cccc2OC)=NC3)ccc1C(=O)O [Alisertib]; conditions: max 10 µM
How it was run: as §1

[16] = compound: COc1cc([C@@H]2c3cc4c(cc3[C@@H](O[C@@H]3O[C@@H]5CO[C@@H](C)O[C@H]5[C@H](O)[C@H]3O)[C@H]3COC(=O)[C@H]23)OCO4)cc(OC)c1O [Etoposide]; conditions: max 10 µM
How it was run: as §1

[17] = compound: COc1cc2ncnc(Nc3ccc(F)c(Cl)c3)c2cc1OCCCN1CCOCC1 [Gefitinib]; conditions: max 10 µM
How it was run: as §1

[18] = compound: COc1cccc(OCCCN)c1-c1cc(Nc2cnc(C#N)cn2)n[nH]1 [Prexasertib]; conditions: max 1 µM
How it was run: as §1

[19] = compound: COc1cccc2c1C(=O)c1c(O)c3c(c(O)c1C2=O)C[C@@](O)(C(=O)CO)C[C@@H]3O[C@H]1C[C@H](N)[C@H](O)[C@H](C)O1 [Doxorubicin]; conditions: max 1 µM
How it was run: as §1

[20] = compound: COc1nnc2ccc(N3CCC(c4ccc(OCCN5CCN(C)C(=O)[C@H]5C)cc4)CC3)nn12 [AZD5153]; conditions: max 1 µM
How it was run: as §1

[21] = compound: CS(=O)(=O)CCNCc1ccc(-c2ccc3ncnc(Nc4ccc(OCc5cccc(F)c5)c(Cl)c4)c3c2)o1 [Lapatinib]; conditions: max 10 µM
How it was run: as §1

[22] = compound: C[C@@H](Nc1cc(F)cc(F)c1)c1cc(C(=O)N(C)C)cc2c(=O)cc(N3CCOCC3)oc12 [AZD8186]
How it was run: as §1

[23] = compound: C[C@@H](Oc1cc(-c2cnn(C3CCNCC3)c2)cnc1N)c1c(Cl)ccc(F)c1Cl [Crizotinib]; conditions: max 10 µM
How it was run: as §1

[24] = compound: C[C@@H](c1ccc2nccn2c1)n1nnc2ncc(-c3cnn(C)c3)nc21 [Savolitinib]; conditions: max 1 µM
How it was run: as §1

[25] = compound: C[C@@H]1COCCN1C2=NC(=NC(=C2)C3(CC3)[S@](=N)(=O)C)C4=C5C=CNC5=NC=C4 [AZD6738]; conditions: max 10 µM
How it was run: as §1

[26] = compound: Cc1c2c(nn1C)CSCc1cc(n(C)n1)CSc1cc(c3ccccc3c1)OCCCc1c(C(=O)O)n(C)c3c-2c(Cl)ccc13 [AZD5991]; conditions: max 1 µM
How it was run: as §1

[27] = compound: Cc1cc2ncnn2cc1Nc1ncc2c(n1)n(C1CCOCC1)c(=O)n2C [AZD7648]; conditions: max 10 µM
How it was run: as §1

[28] = compound: Cc1nc(-c2cn3c(n2)-c2ccc(-c4cnn(C(C)(C)C(N)=O)c4)cc2OCC3)n(C(C)C)n1 [Taselisib]; conditions: max 10 µM
How it was run: as §1

[29] = compound: Cn1cnc2c(F)c(Nc3ccc(Br)cc3Cl)c(C(=O)NOCCO)cc21 [Selumetinib]; conditions: max 10 µM
How it was run: as §1

[30] = compound: N#Cc1cnc(Nc2cc(NC[C@H]3CNCCO3)c(C(F)(F)F)cn2)cn1 [SRA737]; conditions: max 10 µM
How it was run: as §1

[31] = compound: NC1(c2ccc(-c3nc4ccn5c(=O)[nH]nc5c4cc3-c3ccccc3)cc2)CCC1 [MK-2206]; conditions: max 10 µM
How it was run: as §1

[32] = compound: Nc1ccn([C@@H]2O[C@H](CO)[C@@H](O)C2(F)F)c(=O)n1 [Gemcitabine]; conditions: max 0.3 µM
How it was run: as §1

[33] = compound: O=C(Nc1ccc2[nH]nc(-c3ccncc3)c2c1)[C@@H]1CCN(CC(=O)N2CCN(c3ccc(-c4ncccn4)cc3)CC2)C1; conditions: max 5 µM
How it was run: as §1

[34] = compound: O=C(c1cc(Cc2n[nH]c(=O)c3ccccc23)ccc1F)N1CCN(C(=O)C2CC2)CC1 [Olaparib]; conditions: max 10 µM
How it was run: as §1

[35] = compound: O=c1[nH]cc(F)c(=O)[nH]1 [5-Fluorouracil]; conditions: max 20 µM
How it was run: as §1

[36] = compound: C1CN(CCC1(C(=O)N[C@@H](CCO)C2=CC=C(C=C2)Cl)N)C3=NC=NC4=C3C=CN4 [Capivasertib]; conditions: max 10 µM
How it was run: as §1

| Cell Line | IC50, cell viability 72 h [1] [µM] | IC50, cell viability 72 h [2] [µM] | IC50, cell viability 72 h ([3]; max 3 µM) [nM] | IC50, cell viability 72 h [4] [nM] | IC50, cell viability 72 h [5] [nM] | IC50, cell viability 72 h [6] [µM] | IC50, cell viability 72 h [7] [nM] | IC50, cell viability 72 h [8] [nM] | IC50, cell viability 72 h [9] [nM] | IC50, cell viability 72 h [10] [nM] | IC50, cell viability 72 h [11] [nM] | IC50, cell viability 72 h [12] [nM] | IC50, cell viability 72 h ([13]; max 3 µM) [nM] | IC50, cell viability 72 h [14] [nM] | IC50, cell viability 72 h [15] [nM] | IC50, cell viability 72 h [16] [nM] | IC50, cell viability 72 h [17] [µM] | IC50, cell viability 72 h [18] [nM] | IC50, cell viability 72 h [19] [nM] | IC50, cell viability 72 h [20] [nM] | IC50, cell viability 72 h [21] [µM] | IC50, cell viability 72 h ([22]; max 10 µM) [µM] | IC50, cell viability 72 h [23] [µM] | IC50, cell viability 72 h [24] [nM] | IC50, cell viability 72 h [25] [nM] | IC50, cell viability 72 h [26] [nM] | IC50, cell viability 72 h [27] [µM] | IC50, cell viability 72 h [28] [µM] | IC50, cell viability 72 h [29] [µM] | IC50, cell viability 72 h [30] [µM] | IC50, cell viability 72 h [31] [µM] | IC50, cell viability 72 h [32] [nM] | IC50, cell viability 72 h [33] [µM] | IC50, cell viability 72 h [34] [µM] | IC50, cell viability 72 h [35] [µM] | IC50, cell viability 72 h ([3]; max 1 µM) [nM] | IC50, cell viability 72 h ([13]; max 1 µM) [nM] | IC50, cell viability 72 h [36] [µM] | IC50, cell viability 72 h ([22]; max 3 µM) [µM] |
| --- | --- | --- | --- | --- | --- | --- | --- | --- | --- | --- | --- | --- | --- | --- | --- | --- | --- | --- | --- | --- | --- | --- | --- | --- | --- | --- | --- | --- | --- | --- | --- | --- | --- | --- | --- | --- | --- | --- | --- |
| EW-7 (Ewing's Sarcoma) | > 10 | 4.5 | 308 | > 1000 | 40.8 | > 10 | > 300 | > 1000 | > 2000 | > 1 | > 1000 | 5.52 | > 3000 | 943 | 2150 | 253 | > 10 | 5.28 | 101 | > 1000 | > 10 | > 10 | 3.46 | > 1000 | 1160 | > 1000 | 9.44 | 0.155 | > 10 | 0.908 | 5.63 | 4.7 | > 5 | > 10 | > 20 |  |  |  |  |
| KP-N-YN (Neuroblastoma) | > 10 | > 10 |  | > 1000 | 110 | > 10 | > 300 | 344 | > 2000 | > 1 | 402 | 35 |  | 49.2 | 1090 | > 10000 | > 10 | 5.36 | 749 | > 1000 | > 10 | > 10 | > 10 | > 1000 | 751 | > 1000 | > 10 | 5.58 | > 10 | 0.751 | > 10 |  | > 5 | > 10 | > 20 | 307 | > 1000 |  |  |
| MKN1 (Gastric Carcinoma) | > 10 | > 10 | 640 | > 1000 | 13.4 | > 10 | > 300 | > 1000 | 560 |  | > 1000 | 124 | > 3000 | > 1000 |  | 1250 | > 10 |  |  | 343 | > 10 | > 10 | > 10 | > 1000 | 2870 | > 1000 | > 10 | 0.573 | > 10 | 4.85 | > 10 | 161 | > 5 | > 10 | > 20 |  |  |  |  |
| NB13 (Neuroblastoma) | > 10 |  |  | > 1000 |  | > 10 | > 300 | > 1000 | > 2000 | > 1 | > 1000 | 13.7 |  | 139 | 244 | 2430 | > 10 | 15.9 | 194 | 953 | > 10 |  | 3.97 | > 1000 | 2220 | > 1000 | > 10 | > 10 | > 10 | 3.64 | > 10 | > 300 | > 5 | > 10 | > 20 | 322 | > 1000 | > 10 | > 3 |
| NCI-H841 (Small Cell Lung Carcinoma) | > 10 | > 10 | 1690 | > 1000 | 26.6 | > 10 | > 300 | > 1000 | > 2000 |  | > 1000 | > 300 | > 3000 | > 1000 |  | > 10000 | > 10 |  |  | > 1000 | > 10 | > 10 | > 10 | > 1000 | > 10000 | > 1000 | > 10 | > 10 | > 10 | > 10 | > 10 | > 300 | > 5 | > 10 | > 20 |  |  |  |  |
| UACC-812 (Breast Carcinoma) | > 10 | > 10 | > 3000 | > 1000 | 1920 | > 10 | > 300 | > 1000 | > 2000 | > 1 | > 1000 | > 300 | > 3000 | > 1000 | > 10000 | 9330 | > 10 | 851 | > 1000 | > 1000 | 7.47 | > 10 | > 10 | > 1000 | > 10000 | > 1000 | > 10 | > 10 | > 10 | > 10 |  | > 300 | > 5 | > 10 | > 20 |  |  |  |  |
